Patent US20060057236A1, “Process for producing an extract of ivy leaves” (priority 2003, published 2006)

Columns and labels:
β-adrenergic receptors = assay: inhibition of internalization of β-adrenergic receptors (receptor/ligand complex) into the cell; type: cell-based; conditions: studies carried out by the applicant; result in words
β-adrenergic receptor = assay: direct action on the β-adrenergic receptor; conditions: studies carried out by the applicant; result in words

C[C@@H]1O[C@@H](O[C@H]2[C@H](O[C@H]3CC[C@@]4(C)[C@@H](CC[C@]5(C)[C@@H]4CC=C4[C@@H]6CC(C)(C)CC[C@]6(C(=O)O[C@@H]6O[C@H](CO[C@@H]7O[C@H](CO)[C@@H](O[C@@H]8O[C@@H](C)[C@H](O)[C@@H](O)[C@H]8O)[C@H](O)[C@H]7O)[C@@H](O)[C@H](O)[C@H]6O)CC[C@]45C)[C@]3(C)CO)OC[C@H](O)[C@@H]2O)[C@H](O)[C@H](O)[C@H]1O [hederacoside C]
inhibition of the process of internalizing β-adrenergic receptors (β-adrenergic receptors): unable to inhibit the process of internalization

CC1(C)CC[C@]2(C(=O)O)CC[C@]3(C)C(=CC[C@@H]4[C@@]5(C)CC[C@H](O)[C@@](C)(CO)[C@@H]5CC[C@]43C)[C@@H]2C1 [hederagenin]
inhibition of the process of internalizing β-adrenergic receptors (β-adrenergic receptors): unable to inhibit the process of internalization

C[C@@H]1O[C@@H](O[C@H]2[C@H](O[C@H]3CC[C@@]4(C)[C@@H](CC[C@]5(C)[C@@H]4CC=C4[C@@H]6CC(C)(C)CC[C@]6(C(=O)O)CC[C@]45C)[C@]3(C)CO)OC[C@H](O)[C@@H]2O)[C@H](O)[C@H](O)[C@H]1O [α-hederin]
inhibition of the process of internalizing β-adrenergic receptors (β-adrenergic receptors): inhibits the process of internalizing β-adrenergic receptors in a specific manner | direct attack on the β-adrenergic receptor (β-adrenergic receptor): does not attack the β-adrenergic receptor directly
